Test results taken from PubChem BioAssay AID2060507 (Molecular Pharmacology Branch, DTP, NCI, 2025).
One block for each molecule: values may come before it.

Test system: 519858-162-T-J1-PDC complex spheroid viability
Assay: Anticancer human tumor 519858-162-T-J1-PDC patient-derived colon adenocarcinoma cell line growth inhibition [GQUAD]
Details: for IC50: curve of first compound; for viability, T/C: stronger effect = lower value
Summary of the method: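 Multi-cell-type spheroids of tumor cells with HUVEC and mesenchymal stem cells, treated with drug combinations. Concentrations descend in half-log steps from near clinical Cmax, or from 10 microM where Cmax is unknown; viability read-out.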

[1] = second compound 0.0316 µM, first compound 0.0316 µM
[2] = second compound 0.0316 µM, first compound 0.1 µM
[3] = second compound 0.0316 µM, first compound 0.316 µM
[4] = second compound 0.0316 µM, first compound 1 µM
[5] = second compound 0.0316 µM, first compound 3.16 µM
[6] = second compound 0.0316 µM, first compound 10 µM
[7] = second compound 0.1 µM, first compound 0.0316 µM
[8] = second compound 0.1 µM, first compound 0.1 µM
[9] = second compound 0.1 µM, first compound 0.316 µM
[10] = second compound 0.1 µM, first compound 1 µM
[11] = second compound 0.1 µM, first compound 3.16 µM
[12] = second compound 0.1 µM, first compound 10 µM
[13] = second compound 0.316 µM, first compound 0.0316 µM
[14] = second compound 0.316 µM, first compound 0.1 µM
[15] = second compound 0.316 µM, first compound 0.316 µM
[16] = second compound 0.316 µM, first compound 1 µM
[17] = second compound 0.316 µM, first compound 3.16 µM
[18] = second compound 0.316 µM, first compound 10 µM
[19] = second compound 1 µM, first compound 0.0316 µM
[20] = second compound 1 µM, first compound 0.1 µM
[21] = second compound 1 µM, first compound 0.316 µM
[22] = second compound 1 µM, first compound 1 µM
[23] = second compound 1 µM, first compound 3.16 µM
[24] = second compound 1 µM, first compound 10 µM
[25] = second compound 3.16 µM, first compound 0.0316 µM
[26] = second compound 3.16 µM, first compound 0.1 µM
[27] = second compound 3.16 µM, first compound 0.316 µM
[28] = second compound 3.16 µM, first compound 1 µM
[29] = second compound 3.16 µM, first compound 3.16 µM
[30] = second compound 3.16 µM, first compound 10 µM
[31] = second compound 10 µM, first compound 0.0316 µM
[32] = second compound 10 µM, first compound 0.1 µM
[33] = second compound 10 µM, first compound 0.316 µM
[34] = second compound 10 µM, first compound 1 µM
[35] = second compound 10 µM, first compound 3.16 µM
[36] = second compound 10 µM, first compound 10 µM
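Note: spheroids exposed to compounds for 7 days.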
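Throughout, for viability, T/C: 100% = DMSO vehicle control viability.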

SMILES: CC(C)n1c(=O)n(C)c2cnc3cc(F)c(-c4ccc(OCCCN5CCCCC5)nc4)cc3c21 + Cc1[nH]c2ccc(F)cc2c1-c1nc2c3cccnc3c3ncccc3c2[nH]1
IC50 (second compound 0.0316 µM): > 10 µM | IC50 (second compound 0.1 µM): > 10 µM | IC50 (second compound 0.316 µM): > 10 µM | IC50 (second compound 1 µM): > 10 µM | IC50 (second compound 3.16 µM): > 10 µM | IC50 (second compound 10 µM): > 10 µM | viability, T/C [1]: 97.7% | viability, T/C [2]: 124% | viability, T/C [3]: 114% | viability, T/C [4]: 107% | viability, T/C [5]: 78.2% | viability, T/C [6]: 67.9% | viability, T/C [7]: 77.5% | viability, T/C [8]: 96.8% | viability, T/C [9]: 86.6% | viability, T/C [10]: 91.3% | viability, T/C [11]: 89.7% | viability, T/C [12]: 121% | viability, T/C [13]: 91.5% | viability, T/C [14]: 94.2% | viability, T/C [15]: 82% | viability, T/C [16]: 101% | viability, T/C [17]: 84.8% | viability, T/C [18]: 80.7% | viability, T/C [19]: 79.2% | viability, T/C [20]: 85.5% | viability, T/C [21]: 101% | viability, T/C [22]: 119% | viability, T/C [23]: 96.4% | viability, T/C [24]: 69.5% | viability, T/C [25]: 85.9% | viability, T/C [26]: 75.6% | viability, T/C [27]: 75.9% | viability, T/C [28]: 56.3% | viability, T/C [29]: 50.5% | viability, T/C [30]: 67.3% | viability, T/C [31]: 65.8% | viability, T/C [32]: 73.8% | viability, T/C [33]: 56.8% | viability, T/C [34]: 51.4% | viability, T/C [35]: 54.9% | viability, T/C [36]: 53%

IC50 (second compound 0.0316 µM): > 10 µM | IC50 (second compound 0.1 µM): > 10 µM | IC50 (second compound 0.316 µM): > 10 µM | IC50 (second compound 1 µM): < 0.0316 µM | IC50 (second compound 3.16 µM): < 0.0316 µM | IC50 (second compound 10 µM): < 0.0316 µM
SMILES: C=CCn1c(=O)c2cnc(Nc3ccc(N4CCN(C)CC4)cc3)nc2n1-c1cccc(C(C)(C)O)n1 + Cc1cnc(CNC(=O)c2c(=O)c3ccc(N4CCCN(C)CC4)nc3n3c2sc2ccccc23)cn1
viability, T/C [1]: 95.6% | viability, T/C [2]: 82.6% | viability, T/C [3]: 94.3% | viability, T/C [4]: 66.1% | viability, T/C [5]: 70.4% | viability, T/C [6]: 76% | viability, T/C [7]: 81.8% | viability, T/C [8]: 96.9% | viability, T/C [9]: 58.5% | viability, T/C [10]: 92% | viability, T/C [11]: 66.8% | viability, T/C [12]: 69.7% | viability, T/C [13]: 51.6% | viability, T/C [14]: 73% | viability, T/C [15]: 49.8% | viability, T/C [16]: 64.2% | viability, T/C [17]: 75.8% | viability, T/C [18]: 64.3% | viability, T/C [19]: 60% | viability, T/C [20]: 48.2% | viability, T/C [21]: 38.8% | viability, T/C [22]: 42.4% | viability, T/C [23]: 73.6% | viability, T/C [24]: 68% | viability, T/C [25]: 46.3% | viability, T/C [26]: 51.4% | viability, T/C [27]: 53.8% | viability, T/C [28]: 45.5% | viability, T/C [29]: 49.5% | viability, T/C [30]: 53.4% | viability, T/C [31]: 40% | viability, T/C [32]: 55.3% | viability, T/C [33]: 51.6% | viability, T/C [34]: 40.1% | viability, T/C [35]: 32.3% | viability, T/C [36]: 39.4%
